Consider seven compounds from patent US7705043B2, “Substituted aminodicarboxylic acid derivatives having pharmaceutical properties” (Bayer Schering Pharma Aktiengesellschaft, priority 2001, dated 2010).

One data set relates to arteria saphena rings. The experiment in a line: Vasorelaxant effect in vitro (phenylephrine-contracted rings of rabbit arteria saphena). To be noted: Oryctolagus cuniculus, contraction generated by phenylephrine, concentration reducing height of control contraction by 50%. The data set is classed as cell-based. As for the experimental part:
Vasorelaxant Effect in Vitro
Rabbits are anesthetized or killed by intravenous injection of thiopental sodium (about 50 mg/kg) and exsanguinated. The arteria saphena is removed and divided into rings 3 mm wide. The individual rings are in each case mounted on a pair of hooks of triangular shape, open at the ends and made of special wire (Remanium®) having a diameter of 0.3 mm. Under tension, each ring is introduced into a 5 ml organ bath containing carbogen-gassed Krebs-Henseleit solution at 37° C. with the following composition (mM): NaCl: 119; KCl: 4.8; CaCl2×2H2O: 1; MgSO4×7H2O: 1.4; KH2PO4: 1.2; NaHCO3: 25; glucose: 10; bovine serum albumin: 0.001%. The force of contraction is detected with Statham UC2 cells, amplified and digitized via A/D converters (DAS-1802 HC, Keithley Instruments, Munich) and recorded in parallel on chart recorders. Contractions are generated by adding phenylephrine.
After several (generally 4) control cycles, the substance to be investigated is added in each further run in increasing dosage in each case, and the height of the contraction reached under the influence of the test substance is compared with the height of the contraction reached in the last preceding run. The concentration necessary to reduce the height of the control value by 50% (IC50) is calculated from this. The standard application volume is 5 μl. The DMSO content in the bath solution corresponds to 0.1%.

Each structure is given as a SMILES string. Where only a bound is given, the exact number is not on record here.

In general, IC50 refers to the concentration that gives 50% inhibition. High values mean lower potency, low ones higher potency. The melting point is the temperature of the solid-liquid transition.

Consider `Cc1sc(C)c(COc2ccc(-c3ccc(Cl)cc3Cl)cc2)c1CCN(CCCCC(=O)O)Cc1ccc(C(=O)O)cc1` [Example 3, 4-({(4-Carboxybutyl)[2-(4-{[(2′,4′-dichloro-1,1′-biphenyl-4-yl)oxy]methyl}-2,5-dimethyl-3-thienyl)ethyl]amino}methyl)benzoic acid], for which, in the data set with arteria saphena rings, inhibition was half-maximal at 0.002 µM (IC50). Same read-out and setting: in the case of `Cc1sc(C)c(COc2ccc(-c3ccc(C(F)(F)F)cc3)cc2)c1CCN(CCCCC(=O)O)Cc1ccc(C(=O)O)cc1` [Example 4] it was 0.022 µM. The same measure, in the same setting: in the case of `COc1ccc(-c2ccc(OCc3c(C)sc(C)c3CCN(CCCCC(=O)O)Cc3ccc(C(=O)O)cc3)cc2)cc1` [Example 5] it was 0.007 µM; in that of `Cc1sc(C)c(COc2ccc(-c3ccc(C(C)(C)C)cc3)cc2)c1CCN(CCCCC(=O)O)Cc1ccc(C(=O)O)cc1` [Example 9], 0.061 µM; in that of `COc1cccc(-c2ccc(OCc3c(C)sc(C)c3CCN(CCCCC(=O)O)Cc3ccc(C(=O)O)cc3)cc2)c1` [Example 10], 0.051 µM. Take `COc1ccc(-c2ccc(COc3cc4c(cc3CCN(CCCCC(=O)O)Cc3ccc(C(=O)O)cc3)CCCC4)cc2)cc1` [Example 13, 4-{[(4-Carboxybutyl)(2-{3-[(4′-methoxy-1,1′-biphenyl-4-yl)methoxy]-5,6,7,8-tetrahydro-2-naphthyl}ethyl)amino]methyl}benzoic acid]: the melting point is above 240 °C. In the data set with arteria saphena rings, the midpoint of inhibition, the IC50, lay at 0.094 µM. Consider `Cc1ccc(OCc2ccc(-c3ccc(C(F)(F)F)cc3)cc2)c(CCN(CCCCC(=O)O)Cc2ccc(C(=O)O)cc2)n1` [Example 16], for which the midpoint of inhibition with arteria saphena rings, the IC50, lay at 0.125 µM.
